Results published in publication PMC5435539 (Journal of applied toxicology : JAT, 2017).
Where two headings read alike, the source gives them in different places.

What was measured:
[1] = tested on: HT29 colon carcinoma cells; assay: Cell viability assay; format: cell-based; conditions: for IC50: Homo sapiens, HT-29, 24 h, read-out: IC50 HT29; for IC50 HT29: 24 h exposure, 1 nM-100 μM, MTS or Alamar Blue, mean ±SEM
[2] = tested on: MCF-10A breast epithelial cells; assay: Cell viability assay; format: cell-based, human; conditions: for IC50 MCF-10A: 24 h exposure, 1 nM-100 μM, MTS or Alamar Blue, mean ±SEM; for IC50: Homo sapiens, MCF-10A, 24 h, read-out: IC50 MCF-10A
[3] = tested on: CCD18 Co normal colon cells; assay: Cell viability assay; format: cell-based; conditions: for IC50 CCD18 Co: 24 h exposure, 1 nM-100 μM, MTS or Alamar Blue, mean ±SEM
[4] = tested on: MCF-7 breast cancer cells; assay: Alamar Blue cell viability assay, 72 h; format: cell-based; conditions: read-out: IC50 MCF-7 cell viability, 72 h
[5] = tested on: MCF-10A breast epithelial cells; assay: Reactive oxygen species; format: cell-based, human; conditions: 2 h, MCF-10A cells
human CYP1A1 = molecular target: T1, human CYP1A1 (Homo sapiens, UniProt P04798); assay: Fluorometric CYP inhibition assay; format: biochemical
T1 sequence (P04798 1-512): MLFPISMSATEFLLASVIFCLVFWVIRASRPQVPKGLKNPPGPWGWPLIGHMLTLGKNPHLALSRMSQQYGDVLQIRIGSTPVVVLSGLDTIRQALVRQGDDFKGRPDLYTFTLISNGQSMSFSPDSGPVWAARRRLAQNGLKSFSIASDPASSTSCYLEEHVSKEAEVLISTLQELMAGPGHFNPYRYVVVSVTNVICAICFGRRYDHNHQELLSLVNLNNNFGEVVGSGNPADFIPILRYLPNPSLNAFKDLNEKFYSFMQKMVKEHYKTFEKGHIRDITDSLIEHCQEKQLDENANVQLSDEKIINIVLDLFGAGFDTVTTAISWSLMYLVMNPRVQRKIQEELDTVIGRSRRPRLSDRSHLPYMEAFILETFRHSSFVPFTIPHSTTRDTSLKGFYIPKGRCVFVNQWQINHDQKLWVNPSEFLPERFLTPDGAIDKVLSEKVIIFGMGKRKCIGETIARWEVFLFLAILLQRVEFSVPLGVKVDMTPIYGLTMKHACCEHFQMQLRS

CYP1A2 mRNA = assay: Real-time quantitative RT-PCR, B[a]P-induced gene expression in MCF-7 cells; format: cell-based; conditions: Gg 10-100 nM with B[a]P, 24 h
human CYP3A4 = human CYP3A4 (Homo sapiens, UniProt P08684); assay: Fluorometric CYP inhibition assay; format: biochemical; conditions: read-out: IC50 CYP3A4 activity; recombinant human CYP3A4, BFC 50 μM
Sequence of human CYP3A4 (P08684 whole entry): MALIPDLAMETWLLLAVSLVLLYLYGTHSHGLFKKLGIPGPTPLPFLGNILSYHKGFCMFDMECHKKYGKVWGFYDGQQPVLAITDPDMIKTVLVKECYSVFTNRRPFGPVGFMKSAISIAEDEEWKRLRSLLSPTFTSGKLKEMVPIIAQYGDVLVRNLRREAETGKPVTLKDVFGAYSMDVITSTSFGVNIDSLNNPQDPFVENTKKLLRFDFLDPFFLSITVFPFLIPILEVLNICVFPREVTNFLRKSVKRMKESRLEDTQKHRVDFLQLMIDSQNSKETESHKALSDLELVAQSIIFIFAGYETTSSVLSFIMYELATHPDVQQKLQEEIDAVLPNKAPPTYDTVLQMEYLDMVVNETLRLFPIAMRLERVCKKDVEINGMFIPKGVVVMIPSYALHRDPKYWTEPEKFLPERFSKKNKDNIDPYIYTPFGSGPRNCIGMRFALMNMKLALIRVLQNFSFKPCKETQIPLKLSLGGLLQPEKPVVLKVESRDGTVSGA

MCF-7 cells [6] = assay: Annexin V-7AAD apoptosis assay; format: cell-based; conditions: 1 μM, 24 h, AnnexinV-7AAD
human CYP2C19 = human CYP2C19 (Homo sapiens, UniProt P33261); assay: Fluorometric CYP inhibition assay; format: biochemical; conditions: read-out: IC50 CYP2C19 activity; recombinant human CYP2C19, CEC 25 μM
Sequence of human CYP2C19 (P33261 whole entry): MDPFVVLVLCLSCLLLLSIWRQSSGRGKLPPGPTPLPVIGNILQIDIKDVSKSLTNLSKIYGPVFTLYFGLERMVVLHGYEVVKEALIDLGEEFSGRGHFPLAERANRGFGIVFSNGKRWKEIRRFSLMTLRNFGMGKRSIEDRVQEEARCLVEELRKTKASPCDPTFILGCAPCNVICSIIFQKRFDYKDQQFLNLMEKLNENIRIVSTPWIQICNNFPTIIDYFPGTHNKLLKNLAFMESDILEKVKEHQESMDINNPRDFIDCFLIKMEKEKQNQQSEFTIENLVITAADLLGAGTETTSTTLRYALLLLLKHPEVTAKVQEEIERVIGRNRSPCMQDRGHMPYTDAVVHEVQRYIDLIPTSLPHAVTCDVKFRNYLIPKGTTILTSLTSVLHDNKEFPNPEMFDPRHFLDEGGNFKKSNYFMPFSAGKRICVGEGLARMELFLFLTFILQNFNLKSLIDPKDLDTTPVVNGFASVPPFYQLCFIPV

[7] = tested on: CYP1A1 protein expression; assay: B[a]P-induced CYP1A1 protein expression; format: cell-based; conditions: data not shown
CYP1 enzymes mRNA = assay: Endogenous CYP1 mRNA expression in breast cancer cells; format: cell-based; conditions: Gg alone, data not shown
MCF-7 cells [8] = assay: Alamar Blue cell viability assay, 24 h; format: cell-based; conditions: read-out: IC50 MCF-7 (Alamar Blue), 24 h treatment
CYP1A1 mRNA = assay: Real-time quantitative RT-PCR, B[a]P-induced gene expression in MCF-7 cells; format: cell-based; conditions: Gg 10-100 nM with B[a]P, 24 h
human CYP1B1 = molecular target: T2, human CYP1B1 (Homo sapiens, UniProt Q16678); assay: Fluorometric CYP inhibition assay; format: biochemical; conditions: recombinant human CYP1B1
T2 sequence (Q16678 1-543): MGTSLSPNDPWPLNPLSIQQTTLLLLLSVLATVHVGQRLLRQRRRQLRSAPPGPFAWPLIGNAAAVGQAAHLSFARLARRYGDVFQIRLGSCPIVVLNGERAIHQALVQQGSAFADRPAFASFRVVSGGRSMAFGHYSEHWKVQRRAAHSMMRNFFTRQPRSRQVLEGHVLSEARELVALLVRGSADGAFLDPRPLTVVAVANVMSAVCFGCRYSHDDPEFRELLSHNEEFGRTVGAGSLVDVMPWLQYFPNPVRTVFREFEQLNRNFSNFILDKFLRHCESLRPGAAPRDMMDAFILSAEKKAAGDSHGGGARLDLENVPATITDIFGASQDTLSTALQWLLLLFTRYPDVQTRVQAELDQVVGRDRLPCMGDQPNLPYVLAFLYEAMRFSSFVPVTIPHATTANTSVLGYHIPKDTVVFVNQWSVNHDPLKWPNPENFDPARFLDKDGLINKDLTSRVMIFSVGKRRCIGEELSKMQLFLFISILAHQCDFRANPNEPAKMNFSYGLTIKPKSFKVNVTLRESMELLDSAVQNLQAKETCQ

## COc1cc2ccc(=O)oc2cc1O [Scopoletin, scopoletin]
[1]
  IC50: 19.3 ± 0.348 µM
[2]
  IC50 MCF-10A: NI (No inhibition (<10% inhibition at 60 μM))
[3]
  IC50 CCD18 Co: NI (No inhibition (<10% inhibition at 60 μM))
[3]; at 60 μM, 24 h
  inhibition of viability of CCD18Co normal colon cells: < 10%

## O=c1[nH]cc(F)c(=O)[nH]1 [5-Fluorouracil, reference compound]
[2]
  IC50 MCF-10A: NI (No inhibition (<10% inhibition at 60 μM))
[4]; Homo sapiens, MCF7, 72 h
  IC50: > 10000 nM

## COc1cccc2c1C(=O)c1c(O)c3c(c(O)c1C2=O)C[C@@](O)(C(=O)CO)C[C@@H]3O[C@H]1C[C@H](N)[C@H](O)[C@H](C)O1 [Doxorubicin, reference compound]
[2]
  IC50: 30.2 ± 1.29 µM
[4]; Homo sapiens, MCF7, 72 h
  IC50: 100 nM

## CC(=O)O[C@H]1C(=O)O[C@@H]2C[C@H]3C(C)=CC(=O)[C@@H](O)[C@]3(C)[C@H]3[C@]4(O)OC[C@]32[C@@H]1[C@@H](C)[C@H]4O [(−)-Holacanthone, (−)-holacanthone]
[1]
  IC50: 9.91 ± 0.52 µM
[2]
  IC50: 0.3 µM
[3]; Homo sapiens, CCD-18Co, 24 h, read-out: IC50 CCD18 Co
  IC50: < 5 µM

## O=C1C=Cc2ccc3c4c(ccc1c24)-c1ccccc1C3=O [1,6-BPQ, benzo[a]pyrene-1,6-quinone, reference compound]
[5]; 1,6-BPQ 2 μM
  increase in ROS levels: 2 fold

## CC/C(=C(\c1ccc(O)cc1)c1ccc(OCCN(C)C)cc1)c1ccccc1 [4OH-Tam, 4-hydroxy-tamoxifen]
[4]; Homo sapiens, MCF7, 72 h
  IC50: 2600 nM

## CC1=CC(=O)[C@@H](O)[C@]2(C)[C@H]3[C@]4(O)OC[C@]35[C@H]([C@@H](C)[C@H]4O)[C@@H](O)C(=O)O[C@@H]5C[C@@H]12 [(−)-Glaucarubolone, (−)-glaucarubolone]
[1]
  IC50 HT29: NI (No inhibition (<10% inhibition at 60 μM))
[2]
  IC50 MCF-10A: NI (No inhibition (<10% inhibition at 60 μM))
[3]
  IC50 CCD18 Co: NI (No inhibition (<10% inhibition at 60 μM))

## glaucarubulone glucoside [Gg]
Human CYP1A1; Eadie-Hofstee plots
  mode of inhibition of CYP1A1: non-competitive
Human CYP1A1; read-out: IC50 CYP1A1 activity, recombinant human CYP1A1, CEC 0.5 μM
  IC50: 6.93 ± 0.31 µM
Human CYP1A1; read-out: Ki CYP1A1, Eadie-Hofstee plots, non-competitive inhibition
  Ki: 7.1 ± 1.44 µM
[1]
  IC50 HT29: NI (No inhibition (<10% inhibition at 60 μM))
CYP1A2 mRNA
  effect on B[a]P-induced CYP1A2 mRNA expression: sustained inhibition
Human CYP3A4
  IC50: 1.31 ± 0.49 µM
[2]
  IC50 MCF-10A: NI (No inhibition (<10% inhibition at 60 μM))
MCF-7 cells [6]
  early apoptosis: 26.5 ± 9.5%
Human CYP2C19
  IC50: 19.4 ± 1.11 µM
[5]; Gg 1 μM with 1,6-BPQ 2 μM
  effect on 1,6-BPQ-mediated increases in ROS production: effectively suppressed
[7]
  effect on B[a]P-mediated induced CYP1A1 protein expression: could not appreciably suppress
CYP1 enzymes mRNA
  effect on endogenous mRNA expression of CYP1 enzymes: did not appreciably affect
MCF-7 cells [8]
  IC50: 3.52 ± 0.918 µM
CYP1A1 mRNA
  effect on B[a]P-induced CYP1A1 mRNA expression: inhibited B[a]P-induced CYP1A1 mRNA expression in a dose-dependent fashion
[4]; 72 h exposure, Alamar Blue
  IC50: 121 nM
Human CYP1B1
  inhibition of CYP1B1 activity: moderately inhibited

## CCC1(c2ccccc2)C(=O)NC(=O)N(Cc2ccccc2)C1=O (single isomer, unassigned; (-)) [NBPB, (−)-N-3-benzyl-phenobarbital, reference compound]
Human CYP2C19
  IC50: 0.3 ± 0.01 µM
